We go through 22 compounds from patent US20180099931A1 (AbbVie S.à.r.l., priority 2016, published 2018).

The target of this test is T1, F508delCFTR (Homo sapiens, UniProt P13569, DEL508-508).
T1 construct: expressed in transfected cells; host or cells: CFBE41o- human lung-derived epithelial cells (CFBE4lo-F508delCFTR-HRP), doxycycline-inducible
The experiment in a line: Cell Surface Expression-Horse Radish Peroxidase (CSE-HRP) Assay.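 For Maximum % activity (with co-corrector): co-corrector and positive control are both the same reference corrector at 2 µM.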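 For Maximum % activity (without co-corrector): percent of the 2 µM on-plate positive control corrector response above DMSO.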 The class given is cell-based. The settings on record: for Emax / Maximum % activity (with co-corrector): maximum at any tested concentration, normalized to on-plate positive control; for Emax: read-out: Maximum % activity (without co-corrector); for Maximum % activity (with co-corrector): with co-corrector (2 μM).

Where [1] appears, read: test compound without co-corrector.
The mark [2] stands for this setting: test compound without co-corrector, read-out: EC50 (without co-corrector).
The mark [3] stands for this setting: with co-corrector (2 μM of 3-[(2R,4R)-4-({[1-(2,2-difluoro-1,3-benzodioxol-5-yl)cyclopropyl]carbonyl}amino)-7-methoxy-3,4-dihydro-2H-chromen-2-yl]benzoic acid), read-out: EC50 (with co-corrector).

Read-outs that look alike come from different tables or passages of the source.

T1 sequence (P13569 with tags, fused parts or gaps DEL508-508): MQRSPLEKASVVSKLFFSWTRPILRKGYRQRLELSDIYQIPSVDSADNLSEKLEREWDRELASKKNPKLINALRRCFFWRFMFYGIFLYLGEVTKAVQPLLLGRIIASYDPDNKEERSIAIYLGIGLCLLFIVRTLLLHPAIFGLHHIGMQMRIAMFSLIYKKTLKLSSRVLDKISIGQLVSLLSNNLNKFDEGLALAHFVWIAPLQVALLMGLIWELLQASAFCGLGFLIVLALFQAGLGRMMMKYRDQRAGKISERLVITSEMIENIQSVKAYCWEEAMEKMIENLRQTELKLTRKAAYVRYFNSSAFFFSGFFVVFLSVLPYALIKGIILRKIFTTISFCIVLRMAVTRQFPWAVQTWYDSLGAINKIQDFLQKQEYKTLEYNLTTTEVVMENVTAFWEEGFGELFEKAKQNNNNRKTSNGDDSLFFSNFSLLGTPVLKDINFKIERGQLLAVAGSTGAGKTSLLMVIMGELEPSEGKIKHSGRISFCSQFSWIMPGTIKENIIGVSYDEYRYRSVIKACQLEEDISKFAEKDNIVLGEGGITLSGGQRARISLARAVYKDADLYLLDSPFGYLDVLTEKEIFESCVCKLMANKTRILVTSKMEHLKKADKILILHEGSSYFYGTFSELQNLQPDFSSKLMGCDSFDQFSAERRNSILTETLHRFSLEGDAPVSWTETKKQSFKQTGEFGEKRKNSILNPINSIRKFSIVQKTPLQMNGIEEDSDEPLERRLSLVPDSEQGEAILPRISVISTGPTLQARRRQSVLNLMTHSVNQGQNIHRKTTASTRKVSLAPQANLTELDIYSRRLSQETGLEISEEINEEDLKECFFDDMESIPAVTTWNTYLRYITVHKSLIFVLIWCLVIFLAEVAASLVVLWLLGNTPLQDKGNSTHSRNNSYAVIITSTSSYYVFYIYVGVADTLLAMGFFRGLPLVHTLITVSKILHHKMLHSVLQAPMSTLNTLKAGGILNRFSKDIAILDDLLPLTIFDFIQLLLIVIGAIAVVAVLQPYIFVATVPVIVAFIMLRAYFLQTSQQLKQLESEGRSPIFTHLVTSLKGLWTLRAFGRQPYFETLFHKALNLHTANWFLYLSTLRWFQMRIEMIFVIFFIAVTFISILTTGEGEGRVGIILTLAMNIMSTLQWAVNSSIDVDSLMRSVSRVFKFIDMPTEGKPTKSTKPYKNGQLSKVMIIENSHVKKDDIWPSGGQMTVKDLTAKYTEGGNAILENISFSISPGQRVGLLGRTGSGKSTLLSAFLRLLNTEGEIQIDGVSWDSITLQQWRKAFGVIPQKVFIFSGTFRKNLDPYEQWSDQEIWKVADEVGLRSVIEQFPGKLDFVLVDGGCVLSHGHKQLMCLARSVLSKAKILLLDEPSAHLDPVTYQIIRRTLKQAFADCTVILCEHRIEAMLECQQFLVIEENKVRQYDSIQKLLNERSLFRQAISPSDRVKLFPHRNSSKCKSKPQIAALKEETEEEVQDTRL

For the compound `COc1cc(C(F)(F)F)ccc1CN[C@@H]1[C@@H](C(C)(C)C)[C@H](C(=O)O)N(C(=O)OC2CCC2)[C@@H]1c1ccccc1` (racemic) [III-114], the “Maximum % activity (with co-corrector)” value is “+++ (≥350)”. Moreover, the Emax under setting [1] fell in the range of 100 to 200%. Besides, the EC50 under setting [2] fell in the range of 1000 to 10000 nM. Also, the concentration giving a half-maximal response (EC50) under setting [3] fell in the range of 1000 to 10000 nM.
With `COc1ncc(C(F)(F)F)cc1CN[C@@H]1[C@@H](C(C)(C)OC)[C@H](C(=O)O)N(C(=O)C2CCCCC2)[C@@H]1c1ccccc1` (racemic) [III-116], the “Maximum % activity (with co-corrector)” value is on record as “+++ (≥350)”. Further, under setting [1], the Emax lay within 100 to 200%. The EC50 under setting [2] lay within 1000 to 10000 nM. The concentration giving a half-maximal response (EC50) under setting [3] was less than 1000 nM.
For `COc1cc(Cl)ccc1CN[C@H]1[C@H](C(C)(C)C)[C@@H](C(=O)O)N(C(=O)C2CCCCC2)[C@H]1c1ncccc1OC` (racemic) [III-143], the “Maximum % activity (with co-corrector)” value was “+ (<150)”. Moreover, under setting [1], the Emax is less than 100%. The concentration for a half-maximal effect (EC50) under setting [2] is greater than 10000 nM. In addition, the EC50 under setting [3] is greater than 10000 nM.
`COc1cc(C(F)(F)F)ccc1CN[C@H]1[C@H](C(C)(C)C)[C@@H](C(=O)O)N(C(=O)C(C)c2ccccc2)[C@H]1c1ccccc1` (relative stereo) [Example 11, (2S,3S,4S,5S)-3-tert-butyl-4-({[2-methoxy-4-(trifluoromethyl)phenyl]methyl}amino)-5-phenyl-1-[(2R*)-2-phenylpropanoyl]pyrrolidine-2-carboxylic acid]: the “Maximum % activity (with co-corrector)” value is listed as “+++ (≥350)”. For the same compound, the 50% effective concentration (EC50) under setting [2] is 1000 to 10000 nM. Moreover, the concentration for a half-maximal effect (EC50) under setting [3] lay in the range of 1000 to 10000 nM. The Emax (without co-corrector) fell in the range of 100 to 200%.
For the compound `COc1ccc(C(C)(C)C)cc1CN[C@H]1[C@H](C(C)(C)C)[C@@H](C(=O)O)N(C(=O)[C@H]2OCC[C@H]2C(C)C)[C@H]1c1ccccc1` (relative stereo) [Example 23, (2S,3S,4S,5S)-3-tert-butyl-4-{[(5-tert-butyl-2-methoxyphenyl)methyl]amino}-5-phenyl-1-[(2S*,3S*)-3-(propan-2-yl)oxolane-2-carbonyl]pyrrolidine-2-carboxylic acid], the “Maximum % activity (with co-corrector)” value was “+++ (≥350)”. Under setting [2], the half-maximal effective concentration (EC50) lay within 1000 to 10000 nM. Also, the concentration for a half-maximal effect (EC50) under setting [3] is less than 1000 nM. Moreover, where the note is “without co-corrector”, the Emax was greater than 200%.
Consider `COc1nc(C(C)(C)C)ccc1CN[C@H]1[C@H](C(C)(C)C)[C@@H](C(=O)O)N(C(=O)C2CCCC(F)(F)C2)[C@H]1c1ccccc1` (relative stereo) [Example 53, (2S,3S,4S,5S)-3-tert-butyl-4-{[(6-tert-butyl-2-methoxypyridin-3-yl)methyl]amino}-1-[(1R*)-3,3-difluorocyclohexane-1-carbonyl]-5-phenylpyrrolidine-2-carboxylic acid], for which the “Maximum % activity (with co-corrector)” value is recorded as “+++ (≥350)”. For the same compound, the concentration giving a half-maximal response (EC50) under setting [2] was in the range of 1000 to 10000 nM. Moreover, the EC50 under setting [3] was less than 1000 nM. Moreover, the Emax (without co-corrector) was greater than 200%.
The corresponding values for `COc1ccc(C(C)(C)C)cc1CN[C@H]1[C@H](C(C)(C)C)[C@@H](C(=O)O)N(C(=O)C2CCCCO2)[C@H]1c1ccccc1C(C)C` (relative stereo) [Example 62, (2S,3S,4S,5S)-3-tert-butyl-4-{[(5-tert-butyl-2-methoxyphenyl)methyl]amino}-1-[(2S*)-oxane-2-carbonyl]-5-[2-(propan-2-yl)phenyl]pyrrolidine-2-carboxylic acid] are “+++ (≥350)”, less than 1000 nM, less than 1000 nM and greater than 200%.
With `COc1ccc(C(C)(C)C)cc1CN[C@H]1[C@H](C(C)(C)C)[C@@H](C(=O)O)N(C(=O)[C@@H]2C[C@H]3CC[C@@H]2O3)[C@H]1c1ccccc1C(C)C` (relative stereo) [Example 74, (2S,3S,4S,5S)-3-tert-butyl-4-{[(5-tert-butyl-2-methoxyphenyl)methyl]amino}-1-[(1S*,2R*,4R*)-7-oxabicyclo[2.2.1]heptane-2-carbonyl]-5-[2-(propan-2-yl)phenyl]pyrrolidine-2-carboxylic acid], the “Maximum % activity (with co-corrector)” value is “+++ (≥350)”. The EC50 under setting [2] was in the range of 1000 to 10000 nM. Under setting [3], the concentration for a half-maximal effect (EC50) was less than 1000 nM. Besides, for the setting “without co-corrector”, the Emax was greater than 200%.
The like results for `COc1ccc(C(F)(F)F)cc1CN[C@@H]1[C@@H](C(C)(C)C)[C@H](C(=O)O)N(C(=O)C(C)Oc2ccccc2)[C@@H]1c1ccccc1` (relative stereo) [Example I-32] were, in that order, “+++ (≥350)”, 1000 to 10000 nM, 1000 to 10000 nM and less than 100%.
Consider `CO[C@H](C(=O)N1[C@H](c2ccccc2)[C@H](Nc2cc(C(F)(F)F)cc(C)n2)[C@@H](C(C)(C)C)[C@@H]1C(=O)O)c1ccccc1` (relative stereo) [Example I-33], for which the “Maximum % activity (with co-corrector)” value was “++ (≥150 and <350)”. For the same compound, the EC50 under setting [2] is greater than 10000 nM. In addition, the EC50 under setting [3] is 1000 to 10000 nM. The Emax (without co-corrector) is less than 100%.
Turning to `COc1ccc(C(C)(C)C)cc1CN[C@H]1[C@H](C(C)(C)C)[C@@H](C(=O)O)N(C(=O)[C@@H]2OCC[C@@H]2C(C)C)[C@H]1c1ccccc1` (relative stereo) [Example I-104, (2S,3S,4S,5S)-3-tert-butyl-4-{[(5-tert-butyl-2-methoxyphenyl)methyl]amino}-5-phenyl-1-[(2R*,3R*)-3-(propan-2-yl)oxolane-2-carbonyl]pyrrolidine-2-carboxylic acid], the “Maximum % activity (with co-corrector)” value is listed as “+++ (≥350)”. For the same compound, under setting [2], the EC50 was 1000 to 10000 nM. In addition, the EC50 under setting [3] fell in the range of 1000 to 10000 nM. Also, under “without co-corrector”, the Emax fell in the range of 100 to 200%.
Consider `COc1ccc(C(F)(F)F)cc1CN[C@H]1[C@H](C(C)(C)C)[C@@H](C(=O)O)N(C(=O)[C@@H]2OCC[C@@H]2C(C)C)[C@H]1c1ccccc1` (relative stereo) [Example I-105], for which the “Maximum % activity (with co-corrector)” value is reported as “+++ (≥350)”. In addition, the EC50 under setting [2] fell in the range of 1000 to 10000 nM. Besides, under setting [3], the 50% effective concentration (EC50) was 1000 to 10000 nM. Where the note is “without co-corrector”, the Emax is less than 100%.
On to `COc1ccc(C(F)(F)F)cc1CN[C@H]1[C@H](C(C)(C)C)[C@@H](C(=O)O)N(C(=O)[C@H]2OCC[C@H]2C(C)C)[C@H]1c1ccccc1` (relative stereo) [Example I-106], for which the “Maximum % activity (with co-corrector)” value is “+++ (≥350)”. Moreover, the EC50 under setting [2] fell in the range of 1000 to 10000 nM. Also, the EC50 under setting [3] lay in the range of 1000 to 10000 nM. In addition, the Emax (without co-corrector) is greater than 200%.
For `COc1ccc(C(C)(C)C)cc1CN[C@H]1[C@H](C(C)(C)C)[C@@H](C(=O)O)N(C(=O)C2OC[C@@H]3CCC[C@H]23)[C@H]1c1ccccc1` (relative stereo) [Example I-107], the “Maximum % activity (with co-corrector)” value was “+++ (≥350)”. Also, the EC50 under setting [2] was in the range of 1000 to 10000 nM. For the same compound, under setting [3], the EC50 was in the range of 1000 to 10000 nM. Also, the Emax (without co-corrector) is greater than 200%.
`COc1ccc(C(F)(F)F)cc1CN[C@H]1[C@H](C(C)(C)C)[C@@H](C(=O)O)N(C(=O)C2OC[C@@H]3CCC[C@H]23)[C@H]1c1ccccc1` (relative stereo) [Example I-108]: the “Maximum % activity (with co-corrector)” value is “+++ (≥350)”. Also, the EC50 under setting [2] lay within 1000 to 10000 nM. Under setting [3], the EC50 was 1000 to 10000 nM. Moreover, under “without co-corrector”, the Emax is 100 to 200%.
Take `COc1ccc(C(C)(C)C)cc1CN[C@H]1[C@H](C(C)(C)C)[C@@H](C(=O)O)N(C(=O)[C@@H]2C[C@H]2c2cccnc2)[C@H]1c1ccccc1` (relative stereo) [Example I-139]: the “Maximum % activity (with co-corrector)” value is “+++ (≥350)”. Also, the EC50 under setting [2] lay in the range of 1000 to 10000 nM. Moreover, the concentration giving a half-maximal response (EC50) under setting [3] lay within 1000 to 10000 nM. Further, the Emax (without co-corrector) is greater than 200%.
`COc1ccc(C(C)(C)C)cc1CN[C@H]1[C@H](C(C)(C)C)[C@@H](C(=O)O)N(C(=O)C(OC)c2ccc(F)c(F)c2)[C@H]1c1ccccc1` (relative stereo) [Example I-159]: the “Maximum % activity (with co-corrector)” value was “+++ (≥350)”. The EC50 under setting [2] was less than 1000 nM. Also, the concentration giving a half-maximal response (EC50) under setting [3] is less than 1000 nM. Further, under “without co-corrector”, the Emax was greater than 200%.
As for `COc1ccc(C(C)(C)C)cc1CN[C@H]1[C@H](C(C)(C)C)[C@@H](C(=O)O)N(C(=O)[C@@H]2OCC[C@@H]2c2ccccc2)[C@H]1c1ccccc1` (relative stereo) [Example I-178], the “Maximum % activity (with co-corrector)” value is reported as “+++ (≥350)”. Moreover, under setting [2], the EC50 lay in the range of 1000 to 10000 nM. For the same compound, the EC50 under setting [3] was in the range of 1000 to 10000 nM. Also, the Emax (without co-corrector) lay in the range of 100 to 200%.
For `COc1ccc(C(C)(C)C)cc1CN[C@H]1[C@H](C(C)(C)C)[C@@H](C(=O)O)N(C(=O)[C@H]2OCC[C@H]2c2ccccc2)[C@H]1c1ccccc1` (relative stereo) [Example I-179], the “Maximum % activity (with co-corrector)” value is on record as “+++ (≥350)”. Moreover, the EC50 under setting [2] was in the range of 1000 to 10000 nM. The EC50 under setting [3] lay in the range of 1000 to 10000 nM. Also, under “without co-corrector”, the Emax is 100 to 200%.
As to `COc1ccc(C(C)(C)C)cc1CN[C@H]1[C@H](C(C)(C)C)[C@@H](C(=O)O)N(C(=O)C2CCCCO2)[C@H]1c1ccccc1` (relative stereo) [Example I-193], the “Maximum % activity (with co-corrector)” value is listed as “+++ (≥350)”. Moreover, the EC50 under setting [2] was 1000 to 10000 nM. In addition, the 50% effective concentration (EC50) under setting [3] lay within 1000 to 10000 nM. In addition, the Emax (without co-corrector) is greater than 200%.
Consider `COc1ccc(C(C)(C)C)cc1CN[C@H]1[C@H](C(C)(C)C)[C@@H](C(=O)O)N(C(=O)[C@@H](C)[C@@H]2CCCCO2)[C@H]1c1ccccc1` (relative stereo) [Example I-195], for which the “Maximum % activity (with co-corrector)” value was “+++ (≥350)”. For the same compound, the EC50 under setting [2] was 1000 to 10000 nM. The half-maximal effective concentration (EC50) under setting [3] was 1000 to 10000 nM. For the same compound, the Emax (without co-corrector) was greater than 200%.
Consider `COc1ccc(C(C)(C)C)cc1CN[C@H]1[C@H](C(C)(C)C)[C@@H](C(=O)O)N(C(=O)[C@H](C)[C@H]2CCCCO2)[C@H]1c1ccccc1` (relative stereo) [Example I-196], for which the “Maximum % activity (with co-corrector)” value is listed as “+++ (≥350)”. Further, the concentration for a half-maximal effect (EC50) under setting [2] fell in the range of 1000 to 10000 nM. Under setting [3], the 50% effective concentration (EC50) lay in the range of 1000 to 10000 nM. Moreover, the Emax (without co-corrector) was greater than 200%.

For orientation: EC50 means the concentration at which the effect is half-maximal.
